Results on 19 molecules are retold here after ChEMBL document CHEMBL1129162, “Analogs of the orally active growth hormone secretagogue L-162,752” (Bioorg Med Chem Lett, 1996).

The structures appear in SMILES notation.

Broadly, the EC50 is the concentration at which the effect is half-maximal. A lower EC50 goes with a more potent agent. Broadly, the pKa is the negative logarithm of the acid dissociation constant. Low readings indicate a stronger acid or weaker base, high ones a weaker acid or stronger base.

The species entered for one data set is Rattus norvegicus. The data set is described as follows: In vitro for growth hormone release by using rat pituitary cell assay. The format is functional. Conditions: Pituitary gland cell.
`O=C(N[C@H](Cc1c[nH]c2ccccc12)C(=O)N1CCC2(CCc3ccccc32)CC1)C1CCCCN1` (stereo partly specified) gave an EC50 of 1900 nM. Still for that read-out and setting: the value for `CC(C)(CC(=O)N[C@H](Cc1c[nH]c2ccccc12)C(=O)N1CCC2(CCc3ccccc32)CC1)NC[C@H](O)CO` was 16 nM; that for `O=C(NC(Cc1c[nH]c2ccccc12)C(=O)N1CCC2(CCc3ccccc32)CC1)NC1CN2CCC1CC2` (stereo unspecified) [SPIROPIPERIDINE] was 50 nM. On the same count and under the same terms, the value for `CC(C)(N)CC(=O)N[C@@H]1CCc2ccccc2N(Cc2ccc(-c3ccccc3-c3nn[nH]n3)cc2)C1=O` was 60 nM; that for `C[C@@](N)(CO)C(=O)N[C@H](Cc1c[nH]c2ccccc12)C(=O)N1CCC2(CCc3ccccc32)CC1` was 48 nM; that for `C[C@H](O)CNC(C)(C)CC(=O)N[C@H](Cc1c[nH]c2ccccc12)C(=O)N1CCC2(CCc3ccccc32)CC1` was 2.6 nM. The same measure, in the same setting: the value for `C[C@H](O)CNC(C)(C)C(=O)N[C@H](Cc1c[nH]c2ccccc12)C(=O)N1CCC2(CCc3ccccc32)CC1` was 700 nM; that for `NC1(C(=O)N[C@H](Cc2c[nH]c3ccccc23)C(=O)N2CCC3(CCc4ccccc43)CC2)CCCC1` was 2600 nM; that for `O=C(N[C@H](Cc1c[nH]c2ccccc12)C(=O)N1CCC2(CCc3ccccc32)CC1)C1CCNCC1` was 100 nM. In turn, `C[C@](N)(CO)C(=O)N[C@H](Cc1c[nH]c2ccccc12)C(=O)N1CCC2(CCc3ccccc32)CC1` showed a concentration giving a half-maximal response (EC50) of 600 nM. `O=C(N[C@H](Cc1c[nH]c2ccccc12)C(=O)N1CCC2(CCc3ccccc32)CC1)C1CCCNC1` (stereo partly specified) had an EC50 of 90 nM. The same measure, in the same setting: the value for `NC1(C(=O)N[C@H](Cc2c[nH]c3ccccc23)C(=O)N2CCC3(CCc4ccccc43)CC2)CC1` was 2100 nM; that for `CC(C)(N)C(=O)N[C@@H](Cc1c[nH]c2ccccc12)C(=O)N1CCC2(CCc3ccccc32)CC1` was 10000 nM; that for `C[C@H](N)C(=O)N[C@H](Cc1c[nH]c2ccccc12)C(=O)N1CCC2(CCc3ccccc32)CC1` was 840 nM. For `CC(C)(N)C(=O)N[C@H](Cc1c[nH]c2ccccc12)C(=O)N1CCC2(CCc3ccccc32)CC1` [L-162752], it took 14 nM to reach a half-maximal effect (EC50). Same read-out and setting: as for `C[C@@H](N)C(=O)N[C@H](Cc1c[nH]c2ccccc12)C(=O)N1CCC2(CCc3ccccc32)CC1`, the figure is 1000 nM. Still for that read-out and setting: as for `NCC(=O)N[C@H](Cc1c[nH]c2ccccc12)C(=O)N1CCC2(CCc3ccccc32)CC1`, the figure is 2000 nM; as for `CC(C)(N)CC(=O)N[C@H](Cc1c[nH]c2ccccc12)C(=O)N1CCC2(CCc3ccccc32)CC1`, 76 nM.

A further data set is filed under the species Rattus norvegicus. The data set is described as follows: Compound was tested in vitro for growth hormone release by using rat pituitary cell assay. The format is functional, Pituitary gland cell.
Settings: not given
Take `NC1(C(=O)N[C@H](Cc2c[nH]c3ccccc23)C(=O)N2CCC3(CCc4ccccc43)CC2)CCCCC1`: the Stimulation was determined as 92%.

Tested on in the next data set: not listed separately
The data set is described as follows: pKa was determined. The format is physicochemical.
Settings: not given
Turning to `NC1(C(=O)N[C@H](Cc2c[nH]c3ccccc23)C(=O)N2CCC3(CCc4ccccc43)CC2)CC1`, the pKa worked out at 5.9. Regarding `CC(C)(N)C(=O)N[C@H](Cc1c[nH]c2ccccc12)C(=O)N1CCC2(CCc3ccccc32)CC1` [L-162752], the pKa is 7.9.
